Test results taken from the supplement of paper PMC11061612.

Key:
Experiment in all cases: Bliss excess, mean over the matrix (fraction); higher = more synergy
[1] = tested on: EW-16 (Ewing's Sarcoma)
Summary of the method: (§1)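 Cell lines in DMEM/F12 or RPMI with 10% FBS were plated in 1536-well plates, held 24 hours at 37°C, 5% CO2, then given two-drug dose matrices for 72 hours (DMSO typically 0.2%). Viability was read by CellTiter-Glo 2.0 luminescence and scaled as inhibition from 0 (vehicle wells) to 1 (blank wells). Combination Emax is the second-highest inhibition in the matrix; Bliss excess is observed combination effect minus expected EA + EB − EA·EB, EA and EB being single-agent effects.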

[2] = tested on: A204 (Rhabdomyosarcoma)
Summary of the method: as §1

[3] = tested on: JHH-2 (Hepatocellular Carcinoma)
Summary of the method: as §1

[4] = tested on: 22RV1 (Prostate Carcinoma)
Summary of the method: as §1

[5] = tested on: Jurkat (T-Lymphoblastic Leukemia)
Summary of the method: as §1

[6] = tested on: NB13 (Neuroblastoma)
Summary of the method: as §1

[7] = tested on: LU-165 (Small Cell Lung Carcinoma)
Summary of the method: as §1

[8] = tested on: GCT (Other Solid Carcinomas)
Summary of the method: as §1

[9] = tested on: 5637 (Bladder Carcinoma)
Summary of the method: as §1

[10] = tested on: KP-N-YN (Neuroblastoma)
Summary of the method: as §1

[11] = tested on: RH-41 (Rhabdomyosarcoma)
Summary of the method: as §1

[12] = tested on: NCI-H2087 (Lung Adenocarcinoma)
Summary of the method: as §1

[13] = tested on: JHU-022 (Oral Cavity Carcinoma)
Summary of the method: as §1

[14] = tested on: NCI-H2228 (Lung Adenocarcinoma)
Summary of the method: as §1

[15] = tested on: EPLC-272H (Other Solid Carcinomas)
Summary of the method: as §1

[16] = tested on: LS-411N (Colorectal Carcinoma)
Summary of the method: as §1

[17] = tested on: JIMT-1 (Breast Carcinoma)
Summary of the method: as §1

[18] = tested on: IM-9 (Non-Cancerous)
Summary of the method: as §1

[19] = tested on: JVM-2 (B-Cell Non-Hodgkin's Lymphoma)
Summary of the method: as §1

[20] = tested on: KYSE-220 (Esophageal Squamous Cell Carcinoma)
Summary of the method: as §1

Structure (SMILES): COc1cccc(OCCCN)c1-c1cc(Nc2cnc(C#N)cn2)n[nH]1 [Prexasertib] + CN(C)CCCOc1ccc(-c2ccc3ncc4c(c3c2)n(C2CCOCC2)c(=O)n4C)cn1 [AZD0156] (first compound max 1 µM, 7x7, partner max 1 µM)
- Bliss excess [1]: 0.023
- Bliss excess [2]: -0.018
- Bliss excess [3]: -0.0371
- Bliss excess [4]: -0.0213
- Bliss excess [5]: -0.0264
- Bliss excess [6]: -0.0268
- Bliss excess [7]: -0.0723
- Bliss excess [8]: -0.0084
- Bliss excess [9]: -0.0174
- Bliss excess [10]: 0.0202
- Bliss excess [11]: -0.0209
- Bliss excess [12]: -0.0405
- Bliss excess [13]: -0.0231
- Bliss excess [14]: -0.0488
- Bliss excess [15]: -0.0602
- Bliss excess [16]: -0.0336
- Bliss excess [17]: 0.0375
- Bliss excess [18]: -0.0022
- Bliss excess [19]: -0.0104
- Bliss excess [20]: -0.026

Structure (SMILES): CC1(C)CCC(CN2CCN(c3ccc(C(=O)NS(=O)(=O)c4ccc(NCC5CCOCC5)c([N+](=O)[O-])c4)c(Oc4cnc5[nH]ccc5c4)c3)CC2)=C(c2ccc(Cl)cc2)C1 [Venetoclax] + COc1cc(Nc2ncc3c(n2)-c2ccc(Cl)cc2C(c2c(F)cccc2OC)=NC3)ccc1C(=O)O [Alisertib] (first compound max 1 µM, 7x7, partner max 10 µM)
- Bliss excess [1]: 0.0541
- Bliss excess [2]: -0.0088
- Bliss excess [3]: -0.0018
- Bliss excess [4]: 0.003
- Bliss excess [5]: 0.165
- Bliss excess [6]: 0.0028
- Bliss excess [7]: 0.027
- Bliss excess [8]: -0.0365
- Bliss excess [9]: -0.0313
- Bliss excess [10]: 0.0886
- Bliss excess [11]: 0.135
- Bliss excess [12]: -0.0241
- Bliss excess [13]: -0.0385
- Bliss excess [14]: -0.0413
- Bliss excess [15]: 0.0442
- Bliss excess [16]: -0.0329
- Bliss excess [17]: -0.0247
- Bliss excess [18]: 0.043
- Bliss excess [19]: 0.0333
- Bliss excess [20]: -0.0305

Structure (SMILES): COc1cccc(OCCCN)c1-c1cc(Nc2cnc(C#N)cn2)n[nH]1 [Prexasertib] + C=CCn1c(=O)c2cnc(Nc3ccc(N4CCN(C)CC4)cc3)nc2n1-c1cccc(C(C)(C)O)n1 [AZD1775] (first compound max 1 µM, partner max 1 µM)
- Bliss excess [1]: 0.155
- Bliss excess [2]: 0.0437
- Bliss excess [3]: 0.0869
- Bliss excess [4]: 0.06
- Bliss excess [5]: 0.0561
- Bliss excess [6]: -0.0347
- Bliss excess [7]: -0.0566
- Bliss excess [8]: 0.0294
- Bliss excess [9]: 0.0167
- Bliss excess [10]: 0.0385
- Bliss excess [11]: 0.0677
- Bliss excess [12]: 0.0576
- Bliss excess [13]: 0.0861
- Bliss excess [14]: 0.0199
- Bliss excess [15]: -0.0284
- Bliss excess [16]: -0.0017
- Bliss excess [17]: 0.032
- Bliss excess [18]: 0.0644
- Bliss excess [19]: -0.0174
- Bliss excess [20]: 0.0333

Structure (SMILES): COc1nnc2ccc(N3CCC(c4ccc(OCCN5CCN(C)C(=O)[C@H]5C)cc4)CC3)nn12 [AZD5153] + CC1(C)CCC(CN2CCN(c3ccc(C(=O)NS(=O)(=O)c4ccc(NCC5CCOCC5)c([N+](=O)[O-])c4)c(Oc4cnc5[nH]ccc5c4)c3)CC2)=C(c2ccc(Cl)cc2)C1 [Venetoclax] (first compound max 1 µM, 7x7, partner max 1 µM)
- Bliss excess [1]: -0.0593
- Bliss excess [2]: -0.0383
- Bliss excess [3]: -0.0068
- Bliss excess [4]: -0.0308
- Bliss excess [5]: -0.0444
- Bliss excess [6]: -0.137
- Bliss excess [7]: -0.0522
- Bliss excess [8]: -0.107
- Bliss excess [9]: -0.0407
- Bliss excess [10]: -0.0809
- Bliss excess [11]: 0.0374
- Bliss excess [12]: -0.0427
- Bliss excess [13]: -0.0043
- Bliss excess [14]: -0.0523
- Bliss excess [15]: -0.0378
- Bliss excess [16]: -0.0573
- Bliss excess [17]: -0.0629
- Bliss excess [18]: 0.0394
- Bliss excess [19]: -0.0081
- Bliss excess [20]: -0.015

Structure (SMILES): COc1cccc(OCCCN)c1-c1cc(Nc2cnc(C#N)cn2)n[nH]1 [Prexasertib] + CCc1c2c(nc3ccc(O)cc13)-c1cc3c(c(=O)n1C2)COC(=O)[C@]3(O)CC [SN-38] (first compound max 1 µM, 7x7, partner max 0.3 µM)
- Bliss excess [1]: -0.0002
- Bliss excess [2]: -0.0375
- Bliss excess [3]: 0.0002
- Bliss excess [4]: -0.0649
- Bliss excess [5]: -0.005
- Bliss excess [6]: 0.0263
- Bliss excess [7]: -0.0618
- Bliss excess [8]: -0.0185
- Bliss excess [9]: 0.0891
- Bliss excess [10]: -0.0158
- Bliss excess [11]: 0.0029
- Bliss excess [12]: -0.0495
- Bliss excess [13]: -0.112
- Bliss excess [14]: -0.0569
- Bliss excess [15]: -0.0229
- Bliss excess [16]: 0.0331
- Bliss excess [17]: 0.0096
- Bliss excess [18]: 0.0077
- Bliss excess [19]: -0.0493
- Bliss excess [20]: -0.0153

Structure (SMILES): CCN(CCO)CCCOc1ccc2c(Nc3cc(CC(=O)Nc4cccc(F)c4)[nH]n3)ncnc2c1 [AZD2811] + C=CCn1c(=O)c2cnc(Nc3ccc(N4CCN(C)CC4)cc3)nc2n1-c1cccc(C(C)(C)O)n1 [AZD1775] (first compound max 1 µM, partner max 1 µM)
- Bliss excess [1]: -0.0134
- Bliss excess [2]: 0.0168
- Bliss excess [3]: 0.0198
- Bliss excess [4]: -0.0367
- Bliss excess [5]: 0.0809
- Bliss excess [6]: 0.0265
- Bliss excess [7]: -0.0603
- Bliss excess [8]: -0.0211
- Bliss excess [9]: -0.0232
- Bliss excess [10]: -0.027
- Bliss excess [11]: 0.0118
- Bliss excess [12]: -0.0831
- Bliss excess [13]: -0.0217
- Bliss excess [14]: 0.0112
- Bliss excess [15]: -0.0341
- Bliss excess [16]: -0.0174
- Bliss excess [17]: -0.0159
- Bliss excess [18]: -0.0297
- Bliss excess [19]: 0.0686
- Bliss excess [20]: -0.0225

Structure (SMILES): Cn1cnc2c(F)c(Nc3ccc(Br)cc3Cl)c(C(=O)NOCCO)cc21 [Selumetinib] + C[C@@H]1COCCN1C2=NC(=NC(=C2)C3(CC3)[S@](=N)(=O)C)C4=C5C=CNC5=NC=C4 [AZD6738] (first compound max 10 µM, 7x7, partner max 10 µM)
- Bliss excess [1]: -0.0914
- Bliss excess [2]: -0.0363
- Bliss excess [3]: 0.0264
- Bliss excess [4]: 0.0144
- Bliss excess [5]: -0.0227
- Bliss excess [6]: -0.0446
- Bliss excess [7]: -0.0284
- Bliss excess [8]: 0.0294
- Bliss excess [9]: 0.0382
- Bliss excess [10]: -0.0431
- Bliss excess [11]: -0.0004
- Bliss excess [12]: -0.0057
- Bliss excess [13]: -0.0175
- Bliss excess [14]: -0.0098
- Bliss excess [15]: -0.0497
- Bliss excess [16]: -0.0195
- Bliss excess [17]: -0.0853
- Bliss excess [18]: -0.0817
- Bliss excess [19]: -0.0344
- Bliss excess [20]: -0.0446

Structure (SMILES): Cn1cnc2c(F)c(Nc3ccc(Br)cc3Cl)c(C(=O)NOCCO)cc21 [Selumetinib] + CCN(CCO)CCCOc1ccc2c(Nc3cc(CC(=O)Nc4cccc(F)c4)[nH]n3)ncnc2c1 [AZD2811] (first compound max 10 µM, 7x7, partner max 1 µM)
- Bliss excess [1]: -0.0221
- Bliss excess [2]: -0.0772
- Bliss excess [3]: -0.0193
- Bliss excess [4]: -0.0797
- Bliss excess [5]: -0.0216
- Bliss excess [6]: -0.0829
- Bliss excess [7]: -0.0377
- Bliss excess [8]: -0.0185
- Bliss excess [9]: 0.0276
- Bliss excess [10]: 0.0253
- Bliss excess [11]: 0.0363
- Bliss excess [12]: -0.0497
- Bliss excess [13]: 0.0079
- Bliss excess [14]: -0.0357
- Bliss excess [15]: 0.0426
- Bliss excess [16]: -0.0115
- Bliss excess [17]: -0.0403
- Bliss excess [18]: -0.032
- Bliss excess [19]: 0.0315
- Bliss excess [20]: 0.036
